Laboratory results from patent US12029776B2, “Composition for treating cancer and use and medicament thereof” (NEWISH TECHNOLOGY (BEIJING) CO., LTD., priority 2020, dated 2024).
Structures can show the parent of a compound that is named as a salt.

Each molecule was assayed on transplanted tumor of the liver cancer cell line Hep3B (assay: Efficacy on the transplanted tumor in nude mice). Settings: FIG. 10.
Method: Hep3B cells were cultured with 10% serum DMEM medium and were digested and counted after they grew into the logarithmic phase. […] Therefore, the present invention adopted a dose of 5*10e6 cells per nude mouse, and administration was performed in groups after the tumors grew into an average volume of 100 mm^3 in about 21 days. The administration was divided into a solvent control group, an apatinib 50 mg/kg oral administration group, a sotagliflozin 20 mg/kg intraperitoneal injection group, and a combination group of simultaneous apatinib 50 mg/kg oral administration and sotagliflozin 20 mg/kg intraperitoneal injection. The administration cycle was once every other day, and the tumor volumes were measured every Tuesday and Friday and calculated according to the formula V=a*b^2/2 (a is the measured long diameter of the tumor, b is the measured short diameter of the tumor). A graph was mapped using Graphpad prism 5 and the measurement results were analyzed statistically.
For `CCOc1ccc(Cc2cc([C@@H]3O[C@H](SC)[C@@H](O)[C@H](O)[C@H]3O)ccc2Cl)cc1` [sotagliflozin], the “sensitisation of the transplanted tumor to the growth inhibitory effect of apatinib” value was “sensitive to the growth inhibitory effect of apatinib”.

What follows are molecules tested on liver cancer cell line (assay: VEGFR2 inhibitors in combination with the SGLT1 inhibitor on the liver cancer cell line (Example 2)). Settings: combined with SGLT1 inhibitor sotagliflozin, FIG. 11-1 to 11-30.
Type: cell-based
Method: Dimethyl sulfoxide (DMSO) can dissolve formazan in cells, and its light absorption value measured at 570 nm wavelength with an enzyme-linked immunodetector can indirectly reflect the number of living cells. Cell growth was determined by 3-(4,5-dimethylthiazol-2-yl)-2,5-diphenyltetrazolium bromide (MTT) assay in a 96-well plate. Specifically, the cells were digested and counted, and then resuspended into a system containing 5000 cells per 200 μL of culture medium and seeded in each well of a 96-well plate. The next day, the medium was replaced with a medium containing different concentrations of sotagliflozin, apatinib, lenvatinib, and the composition of them. After 48 or 72 hours of incubation with the drugs, 20 μL of MTT reagent was added to each well and incubated for 2 hours. After discarding the medium, the formazan deposit in the cells was dissolved in 100 μL of DMSO. The absorbance was measured at 570 nm by a microplate reader. Samples were used in quadruplicate in each group.
In the case of `COc1cc2c(Oc3ccc4[nH]c(C)cc4c3F)ccnc2cc1OCC1(N)CC1` [anlotinib (AL3818) dihydrochloride], the “tumor suppressive effect in combination with the SGLT1 inhibitor compared with single agent” value is reported as “better tumor suppressive effect than as a single agent”. For cediranib maleate, the “tumor suppressive effect in combination with the SGLT1 inhibitor compared with single agent” value was “better tumor suppressive effect than as a single agent”. In the case of `COC(=O)c1ccc2c(c1)NC(=O)/C2=C(\Nc1ccc(N(C)C(=O)CN2CCN(C)CC2)cc1)c1ccccc1` [nintedanib], the “tumor suppressive effect in combination with the SGLT1 inhibitor compared with single agent” value is reported as “better tumor suppressive effect than as a single agent”. With `O=C1c2c(O)cc(O)cc2O[C@H](c2ccc(O)c(O)c2)[C@H]1O` [taxifolin] the “tumor suppressive effect in combination with the SGLT1 inhibitor compared with single agent” value was “better tumor suppressive effect than as a single agent”. `CNC(=O)c1cc(Oc2ccc(NC(=O)Nc3ccc(Cl)c(C(F)(F)F)c3)c(F)c2)ccn1` [regorafenib] was tested, and the “tumor suppressive effect in combination with the SGLT1 inhibitor compared with single agent” value was “better tumor suppressive effect than as a single agent”. With vitamin E the “tumor suppressive effect in combination with the SGLT1 inhibitor compared with single agent” value was “better tumor suppressive effect than as a single agent”. In the case of `CNC(=O)c1c(C)oc2cc(Oc3ncnc4cc(OC)c(OC)cc34)ccc12` [fruquintinib], the “tumor suppressive effect in combination with the SGLT1 inhibitor compared with single agent” value is reported as “better tumor suppressive effect than as a single agent”. `COc1cc2c(Oc3ccc4[nH]c(C)cc4c3F)ncnc2cc1OCCCN1CCCC1` [cediranib] was tested, and the “tumor suppressive effect in combination with the SGLT1 inhibitor compared with single agent” value was “better tumor suppressive effect than as a single agent”. `COc1cc2nccc(Oc3ccc(NC(=O)C4(C(=O)Nc5ccc(F)cc5)CC4)cc3)c2cc1OC` [cabozantinib malate] was tested, and the “tumor suppressive effect in combination with the SGLT1 inhibitor compared with single agent” value was “better tumor suppressive effect than as a single agent”. For `Cc1cc(Nc2cc(N3CCN(C)CC3)nc(/C=C/c3ccccc3)n2)n[nH]1` [ENMD-2076], the “tumor suppressive effect in combination with the SGLT1 inhibitor compared with single agent” value was “better tumor suppressive effect than as a single agent”. `Cc1cc2c(F)c(Oc3ncnn4cc(OC[C@@H](C)O)c(C)c34)ccc2[nH]1` [brivanib] was tested, and the “tumor suppressive effect in combination with the SGLT1 inhibitor compared with single agent” value was “better tumor suppressive effect than as a single agent”. `COc1cc2nccc(Oc3ccc(NC(=O)NC4CC4)c(Cl)c3)c2cc1C(N)=O` [lenvatinib mesylate] was tested, and the “tumor suppressive effect in combination with the SGLT1 inhibitor compared with single agent” value was “better tumor suppressive effect than as a single agent”. For `Cc1cc(Nc2cc(N3CCN(C)CC3)nc(/C=C/c3ccccc3)n2)n[nH]1.O=C(O)C(O)C(O)C(=O)O` [ENMD-2076 L-(+)-tartaric acid], the “tumor suppressive effect in combination with the SGLT1 inhibitor compared with single agent” value was “better tumor suppressive effect than as a single agent”. For `CCS(=O)(=O)O.COC(=O)c1ccc2c(c1)NC(=O)/C2=C(\Nc1ccc(N(C)C(=O)CN2CCN(C)CC2)cc1)c1ccccc1` [nintedanib ethanesulfonate salt], the “tumor suppressive effect in combination with the SGLT1 inhibitor compared with single agent” value was “better tumor suppressive effect than as a single agent”. `COCCNCc1ccc(-c2cc3nccc(Oc4ccc(NC(=O)C5(C(=O)Nc6ccc(F)cc6)CC5)cc4F)c3s2)nc1` [sitravatinib] was tested, and the “tumor suppressive effect in combination with the SGLT1 inhibitor compared with single agent” value was “better tumor suppressive effect than as a single agent”. With `Cc1cc2c(F)c(Oc3ncnn4cc(OC[C@@H](C)OC(=O)[C@H](C)N)c(C)c34)ccc2[nH]1` [brivanib alaninate] the “tumor suppressive effect in combination with the SGLT1 inhibitor compared with single agent” value was “better tumor suppressive effect than as a single agent”. With `CNC(=O)c1cc(COc2nnc(Nc3ccc(Cl)cc3)c3ccoc23)ccn1` [telatinib] the “tumor suppressive effect in combination with the SGLT1 inhibitor compared with single agent” value was “better tumor suppressive effect than as a single agent”.
